The text below walks through data of paper PMC6650409, “Modeling the binding of diverse ligands within the Ah receptor ligand binding domain” (Scientific Reports, 2019).

Numbering of substitutions follows the chain as printed. pEC50, pIC50: −log10 of the molar value. Like-named read-outs stand apart in the source and are kept apart here.

Experiment [1] addresses T1, mAhR (Mus musculus, UniProt P30561).
T1 construct: made in house; host or cells: in vitro, Promega TNT Quick coupled transcription/translation rabbit reticulocyte lysate
T1 sequence (P30561 10-848): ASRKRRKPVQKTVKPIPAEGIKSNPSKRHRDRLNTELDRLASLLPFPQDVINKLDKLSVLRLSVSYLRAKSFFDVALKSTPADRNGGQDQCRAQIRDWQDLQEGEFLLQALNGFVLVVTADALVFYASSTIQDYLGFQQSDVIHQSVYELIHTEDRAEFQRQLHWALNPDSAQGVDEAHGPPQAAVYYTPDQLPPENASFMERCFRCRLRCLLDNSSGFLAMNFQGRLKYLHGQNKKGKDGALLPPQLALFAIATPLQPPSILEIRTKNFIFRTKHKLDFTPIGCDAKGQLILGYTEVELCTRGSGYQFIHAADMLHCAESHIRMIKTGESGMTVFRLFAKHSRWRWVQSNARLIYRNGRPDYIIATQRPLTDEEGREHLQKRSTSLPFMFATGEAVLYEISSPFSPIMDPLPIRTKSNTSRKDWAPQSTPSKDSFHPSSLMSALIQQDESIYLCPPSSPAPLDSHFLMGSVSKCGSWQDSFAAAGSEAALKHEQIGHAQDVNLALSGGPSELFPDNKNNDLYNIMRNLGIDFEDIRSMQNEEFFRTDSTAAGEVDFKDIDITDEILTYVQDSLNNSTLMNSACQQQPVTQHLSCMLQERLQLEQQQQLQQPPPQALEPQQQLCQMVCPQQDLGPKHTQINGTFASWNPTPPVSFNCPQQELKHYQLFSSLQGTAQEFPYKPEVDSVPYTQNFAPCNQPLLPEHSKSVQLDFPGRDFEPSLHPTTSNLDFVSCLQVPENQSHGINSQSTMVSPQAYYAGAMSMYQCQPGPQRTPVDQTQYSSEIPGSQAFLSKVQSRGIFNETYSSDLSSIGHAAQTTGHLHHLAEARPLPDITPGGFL
In words: biochemical. In kind it is binding. Here is the method:
(§1) [^3H]TCDD specific binding to wild-type or mutant mAhRs synthesized in vitro using the Promega TNT Quick coupled transcription/translation rabbit reticulocyte lysate kit (Madison, WI) was carried out as previously described. [^3H]TCDD specific binding was determined by subtracting the amount of [^3H]TCDD bound to unprogrammed lysate (nonspecific binding) from the total amount of [^3H]TCDD binding to lysate containing in vitro expressed AhR. The amount of [^3H]TCDD specific binding remaining in the presence of the indicated competitor chemical was expressed as a percent of the total [^3H]TCDD specific binding. The relative binding affinity (IC50) of each chemical was determined from concentration-dependent competitive inhibition curves obtained using [^3H]TCDD and increasing concentrations of each test chemical and the mean IC50 value was determined using three-parameter non-linear regression.

The target of experiment [2] is T2, mAhR (Mus musculus, UniProt P30561).
T2 construct: made in house; host or cells: in vitro transcription/translation (rabbit reticulocyte lysate)
The experiment is described as follows: biochemical. As to conditions: wild-type mAhR; for EC50: read-out: AhR DNAB -LogEC50 (converted). Here is the method:
(§2) Wild-type and mutant mAhRs and mARNT were synthesized in vitro in the presence of unlabeled L-methionine, the resulting mAhRs and mARNT translation mixtures and MEDGK (25 mM MOPS (3-(N-morpholino)propanesulfonic acid; pH 7.5), 1 mM EDTA, 1 mM dithiothreitol, 10% (v/v) glycerol, 150 mM KCl) were mixed in a 1:1:8 (v/v/v) ratio and incubated with DMSO (1% final concentration) or the indicated concentration of TCDD or test chemical for 2 hours at room temperature. An aliquot of each incubation was mixed with [^32P]-labeled double-stranded oligonucleotide containing the mouse AhR DNA binding site DRE3 (a dioxin responsive element from the upstream region of the murine Cyp1a1 gene[71]) and protein-DNA complexes resolved by gel retardation analysis as previously described in detail. Gels were visualized using a FLA9000 Fujifilm Imager and protein-DNA complexes quantitated with Fujifilm MultiGauge software. For potency measurements, reactions were incubated with increasing concentrations of the test chemical and the chemical concentration producing half maximal AhR:ARNT:DRE complex formation (EC50) determined.
T2 sequence (P53762 whole entry partner, one chain of several): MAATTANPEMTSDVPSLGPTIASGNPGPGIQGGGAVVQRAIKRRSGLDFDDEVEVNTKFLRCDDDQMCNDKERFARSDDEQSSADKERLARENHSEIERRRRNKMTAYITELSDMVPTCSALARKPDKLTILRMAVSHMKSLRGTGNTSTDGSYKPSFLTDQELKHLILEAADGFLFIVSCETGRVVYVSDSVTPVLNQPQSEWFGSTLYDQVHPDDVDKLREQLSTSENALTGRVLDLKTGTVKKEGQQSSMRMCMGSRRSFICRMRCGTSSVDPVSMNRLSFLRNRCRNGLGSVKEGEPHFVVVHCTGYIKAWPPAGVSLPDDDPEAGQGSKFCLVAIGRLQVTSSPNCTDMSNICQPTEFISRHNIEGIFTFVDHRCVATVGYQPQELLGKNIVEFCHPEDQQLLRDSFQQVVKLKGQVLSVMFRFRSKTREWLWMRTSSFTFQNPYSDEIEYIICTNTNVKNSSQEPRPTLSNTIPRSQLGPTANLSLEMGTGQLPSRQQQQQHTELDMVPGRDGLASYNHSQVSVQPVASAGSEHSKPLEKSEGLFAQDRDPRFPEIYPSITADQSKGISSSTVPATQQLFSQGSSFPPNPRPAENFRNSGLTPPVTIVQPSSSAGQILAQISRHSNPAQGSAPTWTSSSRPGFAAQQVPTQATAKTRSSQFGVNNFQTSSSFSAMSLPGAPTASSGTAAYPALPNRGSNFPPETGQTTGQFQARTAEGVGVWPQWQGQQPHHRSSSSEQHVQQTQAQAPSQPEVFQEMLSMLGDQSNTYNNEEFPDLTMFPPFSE

In experiment [3] the target is T3, L309A mutant AhR (Mus musculus, UniProt P30561, L309A).
T3 construct: made in house; host or cells: in vitro transcription/translation (rabbit reticulocyte lysate)
T3 sequence (P30561 10-848 L309A): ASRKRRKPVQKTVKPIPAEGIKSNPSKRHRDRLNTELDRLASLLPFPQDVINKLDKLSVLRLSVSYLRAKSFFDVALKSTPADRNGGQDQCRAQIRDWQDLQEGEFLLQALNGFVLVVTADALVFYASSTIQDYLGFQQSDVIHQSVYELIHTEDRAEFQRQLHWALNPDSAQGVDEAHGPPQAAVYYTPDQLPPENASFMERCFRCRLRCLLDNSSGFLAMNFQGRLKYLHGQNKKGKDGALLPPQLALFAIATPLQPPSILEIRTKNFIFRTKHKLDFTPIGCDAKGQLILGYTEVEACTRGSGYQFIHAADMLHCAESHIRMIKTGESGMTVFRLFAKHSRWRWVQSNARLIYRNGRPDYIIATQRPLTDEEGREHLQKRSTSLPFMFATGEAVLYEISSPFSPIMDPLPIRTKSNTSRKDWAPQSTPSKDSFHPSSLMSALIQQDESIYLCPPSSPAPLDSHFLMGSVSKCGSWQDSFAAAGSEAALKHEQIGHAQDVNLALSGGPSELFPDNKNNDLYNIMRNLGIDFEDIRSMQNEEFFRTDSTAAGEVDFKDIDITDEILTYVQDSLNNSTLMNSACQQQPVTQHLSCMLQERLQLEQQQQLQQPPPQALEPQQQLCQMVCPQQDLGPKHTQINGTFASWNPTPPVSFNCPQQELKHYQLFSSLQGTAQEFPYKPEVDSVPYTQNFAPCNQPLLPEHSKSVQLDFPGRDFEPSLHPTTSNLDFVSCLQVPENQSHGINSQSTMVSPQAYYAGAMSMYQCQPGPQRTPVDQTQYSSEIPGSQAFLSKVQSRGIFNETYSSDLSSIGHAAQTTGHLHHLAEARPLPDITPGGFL
T3 sequence (P53762 whole entry partner): as the sequence (P53762 whole entry partner, one chain of several) above
In words: AhR DNA binding (gel retardation) assay, L309A mutant AhR. As to conditions: L309A substitution; relative to wt mAhR activated by TCDD; single maximal ligand concentration. Type of experiment: biochemical. On the procedure: as §2

In experiment [4] the target is T4, C327A mutant AhR (Mus musculus, UniProt P30561, C327A).
T4 construct: made in house; host or cells: in vitro, Promega TNT Quick rabbit reticulocyte lysate
T4 sequence (P30561 10-848 C327A): T1 sequence (P30561 10-848) with C318A
The experiment is described as follows: [3H]TCDD competitive ligand binding, C327A mutant AhR. To be noted: for change of relative binding affinity versus wild-type AhR: C327A mutation, in words; for pIC50: read-out: IC50. On the procedure:
The mouse AhR (mAhR) and ARNT (mARNT) expression plasmids, mβAhR/pcDNA3 and mβArnt/pcDNA3, have been previously described. Point mutations of mβAhR/pcDNA3 were carried out using the QuikChange Lightning Mutagenesis Kit (Agilent Technologies) and all constructs were verified by sequencing.
as §1

[5] abbreviates: Table S1, wild-type mAhR, mean of nine independent reactions, read-out: AhR LB IC50.
The mark [6] stands for this setting: Table S1, mean of nine independent reactions, read-out: AhR DNAB EC50.
[7] abbreviates: gel retardation, values in text, read-out: relative potency to stimulate AhR DNA binding in vitro (EC50).
The mark [8] stands for this setting: competition with [3H]TCDD, wild-type mAhR, values in text, read-out: relative AhR ligand binding affinity (IC50).

For `Clc1cc2oc3cc(Cl)c(Cl)cc3c2cc1Cl` [TCDF, 2,3,7,8-tetrachlorodibenzofuran], the pIC50 in experiment [1] (setting [5]) was 7.70. Besides, the IC50 in experiment [1] (Table S1, wild-type mAhR, read-out: AhR LB -LogIC50 (converted)) was 20 nM. For the same molecule, the pEC50 was 8.34 in experiment [2] (setting [6]) and 8.35 in experiment [2] (setting [7]). For the same molecule, the “ligand-induced AhR DNA binding” value in experiment [3] is on record as “little to no”.
Regarding `Clc1ccc(-c2cc(Cl)c(Cl)c(Cl)c2)cc1Cl` [PCB126, 3,3′4,4′5-pentachlorobiphenyl], the pIC50 in experiment [1] (setting [5]) and in experiment [1] (setting [8]) was 8.23 throughout. Moreover, the pEC50 in experiment [2] (setting [6]) and in experiment [2] (setting [7]) was 8.19 each time.
Turning to `Clc1cc2c(cc1Cl)Oc1cc(Cl)c(Cl)cc1O2` [TCDD, 2,3,7,8-tetrachlorodibenzo-p-dioxin], the pIC50 in experiment [1] and in experiment [1] (setting [8]) was 9.00 each time. Further, the pEC50 was 8.12 in experiment [2] (AhR DNAB EC50, Table S1, mean of nine independent reactions) and 8.12 in experiment [2] (relative potency to stimulate AhR DNA binding in vitro (EC50), gel retardation, values in text). For the same molecule, the “ligand-induced AhR DNA binding” value in experiment [3] is “less than 25%”.
For the molecule `c1ccc2c(c1)cc1ccc3cccc4ccc2c1c34` [BaP, Benzo(a)pyrene], in experiment [1] (setting [8]), the pIC50 is 6.21. Besides, the pEC50 in experiment [2] (setting [6]) and in experiment [2] (setting [7]) was 7.41 throughout. Further, in experiment [3], the “ligand-induced AhR DNA binding” value is on record as “little to no”.
With `c1ccc2c(c1)ccc1cc3c(ccc4ccccc43)cc12` [DBA, dibenz(a,h)anthracene], the pIC50 in experiment [1] (setting [8]) was 8.12; in experiment [4] (Table S6, AhR mutant C327A) it was 7.84. The pEC50 in experiment [2] (setting [6]) was 8.40. The EC50 in experiment [2] (Table S1) is 3.98 nM. Besides, the “change of relative binding affinity versus wild-type AhR” value in experiment [4] was “no significant effect”. In experiment [4] (Table S6, AhR mutant C327A, read-out: -LogIC50 (converted)), the IC50 was 14.8 nM.
Regarding `Cc1ccc2cc3c(ccc4ccccc43)c3c2c1CC3` [3MC, 3-methylcholanthrene], the pIC50 in experiment [1] (setting [5]) and in experiment [1] (setting [8]) was 8.80 throughout. For the same molecule, the EC50 in experiment [2] (Table S1) was 6.03 nM.
With `O=Cc1c2[nH]c3ccccc3c2cc2[nH]c3ccccc3c12` [FICZ, 6-formylindolo[3,2-b]carbazole], the pIC50 is 8.99 in experiment [1] (setting [5]); 9.00 in experiment [1] (setting [8]); 8.36 in experiment [4] (Table S6, AhR mutant C327A). The pEC50 in experiment [2] (setting [7]) was 8.37. For the same molecule, the “change of relative binding affinity versus wild-type AhR” value in experiment [4] was “no significant effect”.
For the molecule `O=c1cc(-c2ccccc2)oc2ccc3ccccc3c12` [BNF], the pIC50 in experiment [1] (setting [5]) was 8.14; in experiment [1] (setting [8]), 8.14; in experiment [4] (Table S6, AhR mutant C327A), 7.39. The pEC50 in experiment [2] (setting [7]) is 6.86. The “change of relative binding affinity versus wild-type AhR” value in experiment [4] was “significantly decreased”.

As a reminder, the pIC50 is the negative decadic logarithm of the IC50, by convention in mol/L. Broadly, the pEC50 is the negative decadic logarithm of the EC50, by convention in mol/L.
